# Laboratory results as given in US8153818B2, “Triazolyl phenyl benzenesulfonamides” (ChemoCentryx, Inc., priority 2006, dated 2012).
# Target: T1, CCR9 (Homo sapiens, UniProt P51686)
# T1 construct: chemokine expressing cells (such as THP-1 cells for CCR2 assay or MOLT-4 cells for CCR9 assay); host or cells: MOLT-4
# T1 sequence (P51686 1-369): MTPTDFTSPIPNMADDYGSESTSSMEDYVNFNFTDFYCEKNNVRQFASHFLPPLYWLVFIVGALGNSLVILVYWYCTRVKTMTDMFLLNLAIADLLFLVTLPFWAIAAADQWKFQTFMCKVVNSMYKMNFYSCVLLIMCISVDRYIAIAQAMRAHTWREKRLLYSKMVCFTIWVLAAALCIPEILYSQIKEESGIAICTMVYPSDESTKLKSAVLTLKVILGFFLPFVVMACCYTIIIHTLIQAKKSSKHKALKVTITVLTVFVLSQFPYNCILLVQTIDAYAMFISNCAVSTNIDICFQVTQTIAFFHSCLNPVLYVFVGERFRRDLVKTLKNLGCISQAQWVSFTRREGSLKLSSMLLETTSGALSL
# Test: CCR9 activity in one of the chemotaxis, binding or calcium mobilization assays
# Type: cell-based
# Details: assay not specified per compound
# Summary of the method: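 Chemotaxis: THP-1 cells (CCR2, 0.1 nM MCP-1, 90 min) or MOLT-4 cells (CCR9, 50 nM TECK, 150 min) preincubated with compound 15 min RT, migration at 37 °C through 5-μm membrane, CyQUANT read; IC50 by nonlinear regression. Calcium flux: Fluo-4-loaded cells, 0.1 nM MCP-1 or 25 nM TECK. Binding: THP-1, ~50 pM [125I]MCP-1, 3 h, 4 °C.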
row,Structure (SMILES),IC50 [nM]
1,Cn1c(-c2cc(Cl)c(F)cc2NS(=O)(=O)c2ccc(C(C)(C)C)cc2)nnc1C1CCCNC1 (centres unmarked) [Compound 145],< 1000
2,CC(C)c1nnc(-c2cc(Cl)c(F)cc2NS(=O)(=O)c2ccc(C(C)(C)C)cc2)n1[C@H]1CCNC1 [Compound 146],< 1000
3,Cn1c(CN2CCNCC2)nnc1-c1cc(Cl)c(F)cc1NS(=O)(=O)c1ccc(C(C)(C)C)cc1 [Compound 147],< 1000
4,Cn1c(CN[C@H]2CCOC2)nnc1-c1cc(Cl)c(F)cc1NS(=O)(=O)c1ccc(C(C)(C)C)cc1 [Compound 148],< 1000
5,"COCCN(C)Cc1nnc(-c2cc(Cl)c(F)cc2NS(=O)(=O)c2ccc(C(C)(C)C)cc2)n1C [Compound 149, 4-tert-butyl-N-(4-chloro-5-fluoro-2-(5-(((2-methoxyethyl)(methyl)amino)methyl)-4-methyl-4H-1,2,4-triazol-3-yl)phenyl)benzenesulfonamide]",< 1000
6,CC(C)n1c(-c2cc(Cl)ccc2NS(=O)(=O)c2ccc(C(C)(C)C)cc2)nnc1C1(C)CCOCC1 [Compound 150],< 1000
7,CN1CCN(Cc2nnc(-c3cc(Cl)c(F)cc3NS(=O)(=O)c3ccc(C(C)(C)C)cc3)n2C)CC1 [Compound 151],< 1000
8,Cn1c(CNC2CCOCC2)nnc1-c1cc(Cl)c(F)cc1NS(=O)(=O)c1ccc(C(C)(C)C)cc1 [Compound 152],< 1000
9,CC(C)(C)c1ccc(S(=O)(=O)Nc2ccc(Cl)cc2-c2nncn2[C@H]2CCN(S(C)(=O)=O)C2)cc1 [Compound 153],< 1000
10,CC(C)n1c(CN2CCOCC2)nnc1-c1cc(Cl)c(F)cc1NS(=O)(=O)c1ccc(C(C)(C)C)cc1 [Compound 154],< 1000
11,Cc1nnc(-c2cc(Cl)ccc2NS(=O)(=O)c2ccc(C(C)(C)C)cc2)n1C1CCN(C)CC1 [Compound 155],< 1000
12,"CC(C)(C)c1ccc(S(=O)(=O)Nc2ccc(Cl)cc2-c2nnc3ncccn23)cc1 [Compound 156, N-(2-([1,2,4]triazolo[4,3-a]pyrimidin-3-yl)-4-chlorophenyl)-4-tert-butylbenzenesulfonamide]",< 1000

# Continued, values first:
row,IC50 [nM],Structure (SMILES)
1,< 1000,CC(C)(C)c1ccc(S(=O)(=O)Nc2ccc(Cl)cc2-c2nncn2C2CNC2)cc1 [Compound 131]
2,< 1000,"CNCc1nnc(-c2cc(Cl)ccc2NS(=O)(=O)c2ccc(C(C)(C)C)cc2)n1C [Compound 132, 4-tert-butyl-N-(4-chloro-2-(4-methyl-5-((methylamino)methyl)-4H-1,2,4-triazol-3-yl)phenyl)benzenesulfonamide]"
3,< 1000,"CCc1nnc(-c2cc(C(=O)OC)ccc2NS(=O)(=O)c2ccc(C(C)(C)C)cc2)n1C [Compound 133, methyl 4-(4-tert-butylphenylsulfonamido)-3-(5-ethyl-4-methyl-4H-1,2,4-triazol-3-yl)benzoate]"
4,< 1000,"CC(C)Oc1ccc(S(=O)(=O)Nc2ccc(Cl)cc2-c2nncn2[C@H]2CCNC2)cc1 [Compound 134, (S)—N-(4-chloro-2-(4-(pyrrolidin-3-yl)-4H-1,2,4-triazol-3-yl)phenyl)-4-isopropoxybenzenesulfonamide]"
5,< 1000,"Cc1nnc(-c2cc(Cl)ccc2NS(=O)(=O)c2ccc(N3CCOCC3)c(F)c2)n1C [Compound 135, N-(4-chloro-2-(4,5-dimethyl-4H-1,2,4-triazol-3-yl)phenyl)-3-fluoro-4-morpholinobenzenesulfonamide]"
6,< 1000,"COCCn1cnnc1-c1cc(Cl)c(F)cc1NS(=O)(=O)c1ccc(C(C)(C)C)cc1 [Compound 136, 4-tert-butyl-N-(4-chloro-5-fluoro-2-(4-(2-methoxyethyl)-4H-1,2,4-triazol-3-yl)phenyl)benzenesulfonamide]"
7,< 1000,"Cn1c(CCO)nnc1-c1cc(Cl)c(F)cc1NS(=O)(=O)c1ccc(C(C)(C)C)cc1 [Compound 137, 4-tert-butyl-N-(4-chloro-5-fluoro-2-(5-(2-hydroxyethyl)-4-methyl-4H-1,2,4-triazol-3-yl)phenyl)benzenesulfonamide]"
8,< 1000,"CC(C)NCc1nnc(-c2cc(Cl)ccc2NS(=O)(=O)c2ccc(C(C)(C)C)cc2)n1C [Compound 138, 4-tert-butyl-N-(4-chloro-2-(5-((isopropylamino)methyl)-4-methyl-4H-1,2,4-triazol-3-yl)phenyl)benzenesulfonamide]"
9,< 1000,CO[C@@H](C)c1nnc(-c2cc(Cl)c(F)cc2NS(=O)(=O)c2ccc(C(C)(C)C)cc2)n1C [Compound 139]
10,< 1000,Cn1c(-c2cc(Cl)c(F)cc2NS(=O)(=O)c2ccc(C(C)(C)C)cc2)nnc1[C@H]1CCCN1 [Compound 140]
11,< 1000,CC(C)N1CC[C@H](n2cnnc2-c2cc(Cl)ccc2NS(=O)(=O)c2ccc(C(C)(C)C)cc2)C1 [Compound 141]
12,< 1000,"CC1(c2ccc(S(=O)(=O)Nc3ccc(Cl)cc3-c3nncn3[C@H]3CCNC3)cc2)CCOCC1 [Compound 142, (S)—N-(4-chloro-2-(4-(pyrrolidin-3-yl)-4H-1,2,4-triazol-3-yl)phenyl)-4-(4-methyltetrahydro-2H-pyran-4-yl)benzenesulfonamide]"
13,< 1000,CC(C)(C)c1ccc(S(=O)(=O)Nc2ccc(Cl)cc2-c2nncn2[C@H]2CCN(C(N)=O)C2)cc1 [Compound 143]
14,< 1000,Cn1c(CN2CCOCC2)nnc1-c1cc(Cl)ccc1NS(=O)(=O)c1ccc(C(C)(C)C)cc1 [Compound 144]
